Test results: ChEMBL document CHEMBL1159057, “Novel anilinophthalimide derivatives as potential probes for beta-amyloid plaque in the brain” (Bioorg Med Chem, 2010)
Activity calls are given as the source filed them. No cut-off for these calls is given here.

Key:
[1] = Binding affinity to beta-amyloid plaques
[2] = target: T1, Amyloid-beta precursor protein (Homo sapiens, UniProt P05067); test: Displacement of [125I-N-Methyl-4-(4-bromoanilino)phthalimide from beta-amyloid plaques isolated from Alzheimer's disease patient brain
[3] = target: T1, Amyloid-beta precursor protein; test: Binding affinity to beta-amyloid plaques isolated from Alzheimer's disease patient brain at 50 uM by fluorescence micrography
Blood [4] = test: Biodistribution in Kunming mouse blood at 2 uCi, iv after 2 mins; format: ADME, organism-based; conditions: in vivo
Blood [5] = test: Biodistribution in Kunming mouse blood at 2 uCi, iv after 10 mins; format: ADME, organism-based; conditions: in vivo
Blood [6] = test: Biodistribution in Kunming mouse blood at 2 uCi, iv after 30 mins; format: ADME, organism-based; conditions: in vivo, 0.5 h
Blood [7] = test: Biodistribution in Kunming mouse blood at 2 uCi, iv after 60 mins; format: ADME, organism-based; conditions: in vivo, 1 h
Heart [8] = test: Biodistribution in Kunming mouse heart at 2 uCi, iv after 2 mins; format: ADME, organism-based; conditions: in vivo
Heart [9] = test: Biodistribution in Kunming mouse heart at 2 uCi, iv after 10 mins; format: ADME, organism-based; conditions: in vivo
Heart [10] = test: Biodistribution in Kunming mouse heart at 2 uCi, iv after 30 mins; format: ADME, organism-based; conditions: in vivo, 0.5 h
Heart [11] = test: Biodistribution in Kunming mouse heart at 2 uCi, iv after 60 mins; format: ADME, organism-based; conditions: in vivo, 1 h
Lung [12] = test: Biodistribution in Kunming mouse lung at 2 uCi, iv after 2 mins; format: ADME, organism-based; conditions: in vivo
Lung [13] = test: Biodistribution in Kunming mouse lung at 2 uCi, iv after 10 mins; format: ADME, organism-based; conditions: in vivo
Lung [14] = test: Biodistribution in Kunming mouse lung at 2 uCi, iv after 30 mins; format: ADME, organism-based; conditions: in vivo, 0.5 h
Lung [15] = test: Biodistribution in Kunming mouse lung at 2 uCi, iv after 60 mins; format: ADME, organism-based; conditions: in vivo, 1 h
Kidney [16] = test: Biodistribution in Kunming mouse kidney at 2 uCi, iv after 2 mins; format: ADME, organism-based; conditions: in vivo
Kidney [17] = test: Biodistribution in Kunming mouse kidney at 2 uCi, iv after 10 mins; format: ADME, organism-based; conditions: in vivo
Kidney [18] = test: Biodistribution in Kunming mouse kidney at 2 uCi, iv after 30 mins; format: ADME, organism-based; conditions: in vivo, 0.5 h
Kidney [19] = test: Biodistribution in Kunming mouse kidney at 2 uCi, iv after 60 mins; format: ADME, organism-based; conditions: in vivo, 1 h
Spleen [20] = test: Biodistribution in Kunming mouse spleen at 2 uCi, iv after 2 mins; format: ADME, organism-based; conditions: in vivo
Spleen [21] = test: Biodistribution in Kunming mouse spleen at 2 uCi, iv after 10 mins; format: ADME, organism-based; conditions: in vivo
Spleen [22] = test: Biodistribution in Kunming mouse spleen at 2 uCi, iv after 30 mins; format: ADME, organism-based; conditions: in vivo, 0.5 h
Spleen [23] = test: Biodistribution in Kunming mouse spleen at 2 uCi, iv after 60 mins; format: ADME, organism-based; conditions: in vivo, 1 h
Liver [24] = test: Biodistribution in Kunming mouse liver at 2 uCi, iv after 2 mins; format: ADME, organism-based; conditions: in vivo
Liver [25] = test: Biodistribution in Kunming mouse liver at 2 uCi, iv after 10 mins; format: ADME, organism-based; conditions: in vivo
Liver [26] = test: Biodistribution in Kunming mouse liver at 2 uCi, iv after 30 mins; format: ADME, organism-based; conditions: in vivo, 0.5 h
Liver [27] = test: Biodistribution in Kunming mouse liver at 2 uCi, iv after 60 mins; format: ADME, organism-based; conditions: in vivo, 1 h
Brain [28] = test: Biodistribution in Kunming mouse brain at 2 uCi, iv after 2 mins; format: ADME, organism-based; conditions: in vivo
Brain [29] = test: Biodistribution in Kunming mouse brain at 2 uCi, iv after 10 mins; format: ADME, organism-based; conditions: in vivo
Brain [30] = test: Biodistribution in Kunming mouse brain at 2 uCi, iv after 30 mins; format: ADME, organism-based; conditions: in vivo, 0.5 h
Brain [31] = test: Biodistribution in Kunming mouse brain at 2 uCi, iv after 60 mins; format: ADME, organism-based; conditions: in vivo, 1 h
[32] = Partition coefficient, log P at pH 7.4 phosphate buffer; format: physicochemical

T1 sequence (P05067 whole entry): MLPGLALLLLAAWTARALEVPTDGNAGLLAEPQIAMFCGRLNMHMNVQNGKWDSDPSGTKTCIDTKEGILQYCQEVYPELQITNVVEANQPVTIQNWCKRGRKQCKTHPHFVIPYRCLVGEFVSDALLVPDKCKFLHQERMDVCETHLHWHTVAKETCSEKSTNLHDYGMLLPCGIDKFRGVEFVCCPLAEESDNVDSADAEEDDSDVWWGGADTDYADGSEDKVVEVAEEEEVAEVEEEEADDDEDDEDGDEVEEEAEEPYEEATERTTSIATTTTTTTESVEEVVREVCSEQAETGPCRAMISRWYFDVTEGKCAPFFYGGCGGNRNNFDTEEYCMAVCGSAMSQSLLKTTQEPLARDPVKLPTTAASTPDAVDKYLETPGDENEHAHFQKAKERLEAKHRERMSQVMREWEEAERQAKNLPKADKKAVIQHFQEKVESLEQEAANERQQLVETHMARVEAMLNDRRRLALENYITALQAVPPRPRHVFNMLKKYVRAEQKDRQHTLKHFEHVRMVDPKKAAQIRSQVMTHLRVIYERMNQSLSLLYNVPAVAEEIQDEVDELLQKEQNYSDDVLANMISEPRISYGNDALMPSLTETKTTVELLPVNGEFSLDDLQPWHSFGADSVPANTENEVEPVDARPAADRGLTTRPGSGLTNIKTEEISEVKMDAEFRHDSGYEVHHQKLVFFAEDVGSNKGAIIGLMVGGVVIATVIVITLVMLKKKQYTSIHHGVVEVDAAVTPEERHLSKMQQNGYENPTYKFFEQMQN

[11CH3]Nc1ccc(-c2nc3ccc(O)cc3s2)cc1 [PITTSBURGH COMPOUND B]
Ki [1]: 4.3 nM

COc1ccc2cc([C@H](C)C(=O)O)ccc2c1 [NAPROXEN]
Ki [1]: 5.7 nM

CN1C(=O)c2ccc(Nc3ccc(Br)cc3)cc2C1=O
Ki [2]: 3.8 nM | Activity [3]: Active

O=C1NC(=O)c2cc(Nc3ccccc3)c(Nc3ccccc3)cc21 [DAPH]
Ki [2]: > 1000 nM

CN1C(=O)c2cc(Nc3ccccc3)c(Nc3ccccc3)cc2C1=O
Ki [2]: > 1000 nM

CN1C(=O)c2ccc(Nc3ccccc3)cc2C1=O
Ki [2]: 7.6 nM

CN1C(=O)c2ccc(Nc3ccc(I)cc3)cc2C1=O
Ki [2]: 0.9 nM | Activity [3]: Active

CN1C(=O)c2ccc(Nc3ccc([125I])cc3)cc2C1=O
Kd [2]: 0.21 nM | Drug uptake (Blood [4]): 2.47 % ID/g | Drug uptake (Blood [5]): 2.74 % ID/g | Drug uptake (Blood [6]): 2.69 % ID/g | Drug uptake (Blood [7]): 2.78 % ID/g | Drug uptake (Heart [8]): 7.4 % ID/g | Drug uptake (Heart [9]): 3.41 % ID/g | Drug uptake (Heart [10]): 2.83 % ID/g | Drug uptake (Heart [11]): 2.24 % ID/g | Drug uptake (Lung [12]): 6.77 % ID/g | Drug uptake (Lung [13]): 6.35 % ID/g | Drug uptake (Lung [14]): 3.47 % ID/g | Drug uptake (Lung [15]): 2.82 % ID/g | Drug uptake (Kidney [16]): 9.81 % ID/g | Drug uptake (Kidney [17]): 6.55 % ID/g | Drug uptake (Kidney [18]): 3.59 % ID/g | Drug uptake (Kidney [19]): 2.68 % ID/g | Drug uptake (Spleen [20]): 5.64 % ID/g | Drug uptake (Spleen [21]): 6.87 % ID/g | Drug uptake (Spleen [22]): 3.7 % ID/g | Drug uptake (Spleen [23]): 2.92 % ID/g | Drug uptake (Liver [24]): 11.98 % ID/g | Drug uptake (Liver [25]): 14.38 % ID/g | Drug uptake (Liver [26]): 5.84 % ID/g | Drug uptake (Liver [27]): 3.37 % ID/g | Drug uptake (Brain [28]): 5.16 % ID/g | Drug uptake (Brain [29]): 3.41 % ID/g | Drug uptake (Brain [30]): 1.16 % ID/g | Drug uptake (Brain [31]): 0.59 % ID/g | logD [32]: 2.16

Nc1c(/N=N/c2ccc(-c3ccc(/N=N/c4cc(S(=O)(=O)O)c5ccccc5c4N)cc3)cc2)cc(S(=O)(=O)O)c2ccccc12 [CONGO RED]
Ki [2]: > 1000 nM

CC(=C(C#N)C#N)c1ccc2cc(N(C)CC[18F])ccc2c1
Ki [1]: 2.7 nM

COc1ccc(Nc2ccc3c(c2)C(=O)N(C)C3=O)cc1
Ki [2]: 16.3 nM

CN1C(=O)c2ccc(Nc3ccc(O)cc3)cc2C1=O
Ki [2]: 19.7 nM

Cc1ccc(Nc2ccc3c(c2)C(=O)N(C)C3=O)cc1
Ki [2]: 4.1 nM | Activity [3]: Active
